Assay results reported in paper PMC12526154, “Bioactive Compounds Discovery from French Guiana Plant Extracts Through Antitubercular Screening and Molecular Networking” (Plants, 2025).
≈ marks a conversion by molar mass, not a printed value. Entries after “also recorded” stand apart in the source; their conditions may differ. Like-named read-outs stand apart in the source and are kept apart here.

Experiments:
[1] = system: Mtb H37Rv; details: cited from earlier work; for MIC90 / MIC (H37Rv): previously reported
[2] = system: Mycobacterium smegmatis; set-up: method as in earlier work; details: ref 33 (Van Puyvelde et al.); cited from earlier work
[3] = system: Mtb H37Ra strain (ATCC 25177); test: Broth microdilution growth inhibition assay against Mtb H37Ra; format: cell-based, Mycobacterium tuberculosis; details: for antitubercular activity (in words): Mtb H37Ra; for MIC90: 90% inhibition of Mtb H37Ra growth
[4] = in vitro; details: human, CC50, BEAS-2B, 24 h exposure, resazurin; mean ± SD (n = 3)
[5] = Resazurin reduction cytotoxicity assay, IMR90; details: human, IMR-90 fetal lung fibroblasts
[6] = Resazurin reduction cytotoxicity assay, THP-1 macrophages; details: human
[7] = Resazurin reduction cytotoxicity assay, Raw264.7; details: mouse
[8] = Resazurin reduction cytotoxicity assay, HepG2; details: human, HepG2 hepatocellular carcinoma cells
[9] = system: HepG2 cells; test: Resazurin reduction cytotoxicity assay, HepG2; details: HepG2, 24 h exposure, resazurin; mean ± SD (n = 3)
[10] = system: Mtb H37Ra; details: cited from earlier work
[11] = Mycobacterium tuberculosis, pure commercial compounds, 50% inhibition of Mtb H37Ra growth, mean ± SD, read-out: MIC50
[12] = Mycobacterium tuberculosis, pure commercial compounds, mean ± SD, read-out: MIC90
[13] = pure commercial compounds, 50% inhibition of Mtb H37Ra growth, mean ± SD, read-out: MIC50
[14] = pure commercial compounds, 50% inhibition of Mtb H37Ra growth, mean ± SD
[15] = pure commercial compounds, mean ± SD

CC(C)C1=C(O)C(=O)C2=C(C=C[C@H]3C(C)(C)CCC[C@]23C)C1=O [6,7-dehydroroyleanone]
MIC90 ([1]; Mtb H37Rv, ref 10 (Baldin et al.)): 31.2 µg/mL (≈ 99.2 µM)

C=C[C@]1(C)C=C2[C@H](O)C[C@@H]3C(C)(CCC[C@@]3(C)CO)[C@H]2CC1 (stereo partly drawn) [8(14),15-sandaracopimaradiene-7α,18diol]
MIC90 [2]: 12 µg/mL (≈ 39.4 µM)

C=C1CC[C@H]2O[C@]2(C)CC[C@@H]2[C@@H]1CC2(C)C [Caryophyllene oxide]
antitubercular activity (in words) [3]: very low to no activity; also recorded: inactive | MIC50 [3, 11]: > 200 µM | MIC90 [3, 12]: > 200 µM | MIC50 [3, 13]: > 200 µM

COc1ccc(-c2oc3cc(OC)c(OC)c(O)c3c(=O)c2OC)cc1O [Casticin]
MIC50 [3, 11]: > 200 µM | MIC90 [3, 12]: > 200 µM | MIC50 [3, 13]: >200 µM

COc1cc2oc(-c3ccc(O)c(O)c3)cc(=O)c2c(O)c1OC [Cirsiliol]
MIC50 [3, 11]: 80.3 µM (≈ 26.5 µg/mL) | MIC90 [3, 12]: > 200 µM | MIC50 [3, 14]: 80.3 ± 43 µM (≈ 26.5 µg/mL) | MIC90 ([3]; pure commercial compounds, mean ± SD, read-out: MIC90): >200 µM | CC50 [4]: > 250 µM | CC50 at 24 h [5]: 108 ± 44.1 µM | CC50 at 24 h [6]: 11.2 ± 2.7 µM | CC50 at 24 h ([7]; Raw264.7 macrophage cells): 71.2 ± 44.1 µM | CC50 at 24 h [8]: > 250 µM

CC[C@@H](CO)NCCN[C@@H](CC)CO [Ethambutol, reference compound]
MIC50 [3, 11]: 10.3 ± 4 µM (≈ 2.1 µg/mL) | MIC90 [3, 12]: 17.3 ± 0.96 µM (≈ 3.53 µg/mL)

COc1c(O)cc2oc(-c3ccc(O)cc3)cc(=O)c2c1O [Hispidulin]
MIC50 [3, 11]: 54.8 µM (≈ 16.5 µg/mL) | MIC90 [3, 12]: 162 µM (≈ 48.6 µg/mL) | MIC50 [3, 14]: 54.8 ± 25.6 µM (≈ 16.5 µg/mL) | MIC90 [3, 15]: 162 ± 75 µM (≈ 48.6 µg/mL) | CC50 [4]: > 250 µM | CC50 at 24 h [6]: 21.1 ± 14.5 µM | CC50 at 24 h [7]: 227 ± 36.7 µM

NC[C@H]1O[C@H](O[C@H]2[C@H](O)[C@@H](O[C@H]3O[C@H](CO)[C@@H](O)[C@H](N)[C@H]3O)[C@H](N)C[C@@H]2N)[C@H](O)[C@@H](O)[C@@H]1O [Kanamycin, reference compound]
MIC50 [3, 14]: 3.3 ± 0.40 µM (≈ 1.6 µg/mL) | MIC90 [3, 15]: 7.5 ± 1.7 µM (≈ 3.63 µg/mL)

CC1(C)C[C@H](O)C[C@@]2(C)OC(=O)C=C12 [Loliolide]
antitubercular activity (in words) [3]: inactive | MIC50 [3, 11]: > 200 µM | MIC90 [3, 12]: > 200 µM | MIC50 [3, 13]: > 200 µM

O=c1cc(-c2ccc(O)c(O)c2)oc2cc(O)cc(O)c12 [Luteolin]
MIC90 / MIC (H37Rv) ([1]; Mtb H37Rv): 78.12 µg/mL (≈ 273 µM)

COc1cc(C2c3c(cc(OC)c(O)c3OC)CC(CO)C2CO)cc(OC)c1O (stereo not drawn) [Lyoniresinol]
antitubercular activity (in words) [3]: inactive | MIC50 [3, 11]: > 200 µM | MIC90 [3, 12]: > 200 µM | MIC50 [3, 13]: > 200 µM

C=Cc1c(C)c2cc3nc(c4c5[nH]c(cc6nc(cc1[nH]2)C(C)=C6CC)c(C)c5C(=O)[C@@H]4C(=O)OC)[C@@H](CCC(=O)O)[C@@H]3C [Pheophorbide A]
MIC50 [3, 11]: 10.5 ± 5 µM (≈ 6.22 µg/mL) | MIC90 [3, 12]: 17 ± 7.6 µM (≈ 10.1 µg/mL) | MIC50 [3, 13]: 10.5 µM (≈ 6.22 µg/mL) | CC50 [4]: ~4.9 µM | CC50 at 24 h [5]: ~11.5 µM | CC50 at 24 h [6]: 1.4 ± 0.8 µM | CC50 at 24 h ([7]; Raw264.7 macrophage cells): 20.9 ± 6.5 µM | CC50 [9]: no cytotoxicity | CC50 at 24 h [8]: > 84.3 µM

O=c1c(O)c(-c2ccc(O)c(O)c2)oc2cc(O)cc(O)c12 [Quercetin]
MIC90 ([1]; H37Rv): 6.25 µg/mL (≈ 20.7 µM)

C/C1=C\CC(C)(C)/C=C/C(=O)/C(C)=C/CC1 [Zerumbone]
antitubercular activity (in words) [3]: very low to no activity; also recorded: inactive | MIC50 ([3]; Mycobacterium tuberculosis): > 200 µM | MIC90 [3, 12]: > 200 µM | MIC50 [3, 13]: >200 µM | CC50 [4]: 149 ± 43.2 µM | CC50 at 24 h [5]: 79.8 ± 48.7 µM | CC50 at 24 h [6]: 51.6 ± 31.6 µM | CC50 at 24 h ([7]; Raw264.7 macrophage cells): 44.5 ± 3.5 µM | CC50 at 24 h [8]: > 250 µM

COc1ccc(-c2coc3cc(O)c(OC)cc3c2=O)cc1 [afrormosin]
MIC90 [10]: 50 µg/mL (≈ 168 µM)

O=c1cc(-c2ccc(O)cc2)oc2cc(O)cc(O)c12 [apigenin]
MIC90 / MIC (H37Rv) ([1]; Mtb H37Rv): 70 µg/mL (≈ 259 µM)

COc1ccc(-c2coc3cc(O)ccc3c2=O)cc1 [formononetin]
MIC90 [10]: 25 µg/mL (≈ 93.2 µM)

O=C1CC(c2ccc(O)cc2)Oc2cc(O)ccc21 (stereo not drawn) [liquitirigenin]
MIC (H37Ra) ([10]; previously reported MIC90): 25 µg/mL (≈ 97.6 µM)

CC(C)=CCC[C@](C)(O)[C@@H]1CC=C(C)CC1 [α-bisabolol]
MIC50 ([3]; Mycobacterium tuberculosis): > 200 µM | MIC90 [3, 12]: > 200 µM | MIC50 [3, 13]: >200 µM | CC50 [4]: > 250 µM | CC50 at 24 h [5]: > 250 µM | CC50 at 24 h ([6]; THP-1-derived macrophages (PMA-differentiated)): > 250 µM | CC50 at 24 h ([7]; Raw264.7 macrophage cells): 174 ± 26.2 µM | CC50 at 24 h [8]: > 250 µM
